Reference: publication PMC5466822 (Organic & biomolecular chemistry, 2016)

What was measured:
p97 [1] = target: T1, p97 (Homo sapiens, UniProt P55072); test: malachite green ATPase assay, 9-point dose-response; format: biochemical
p97 [2] = target: T1, p97; test: malachite green ATPase assay, dose-response; format: biochemical

T1 sequence (P55072 2-806): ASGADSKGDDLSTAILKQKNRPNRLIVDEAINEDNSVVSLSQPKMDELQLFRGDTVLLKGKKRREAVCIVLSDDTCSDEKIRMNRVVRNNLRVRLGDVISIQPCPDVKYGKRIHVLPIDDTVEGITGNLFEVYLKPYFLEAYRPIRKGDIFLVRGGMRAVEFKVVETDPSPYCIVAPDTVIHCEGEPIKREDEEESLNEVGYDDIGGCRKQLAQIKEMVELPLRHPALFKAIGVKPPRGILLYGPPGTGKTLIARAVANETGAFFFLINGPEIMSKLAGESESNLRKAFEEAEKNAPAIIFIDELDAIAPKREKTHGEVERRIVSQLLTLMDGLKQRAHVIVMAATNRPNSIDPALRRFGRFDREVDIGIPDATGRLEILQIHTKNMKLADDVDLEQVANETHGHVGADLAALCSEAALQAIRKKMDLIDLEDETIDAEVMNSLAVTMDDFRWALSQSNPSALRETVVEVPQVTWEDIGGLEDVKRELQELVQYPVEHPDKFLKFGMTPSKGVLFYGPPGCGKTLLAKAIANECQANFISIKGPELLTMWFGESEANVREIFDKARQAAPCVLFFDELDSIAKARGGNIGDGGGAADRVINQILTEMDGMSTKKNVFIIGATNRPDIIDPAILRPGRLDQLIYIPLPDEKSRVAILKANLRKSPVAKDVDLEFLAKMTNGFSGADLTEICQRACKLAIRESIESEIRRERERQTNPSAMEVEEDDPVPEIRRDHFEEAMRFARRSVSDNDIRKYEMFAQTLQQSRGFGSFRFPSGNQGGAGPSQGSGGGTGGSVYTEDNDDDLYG

Row | IC50 (p97 [2]) | SMILES | IC50 (p97 [1])
1 |  | C[C@H]1CCC/C=C/C(=O)c2c(O)cc(O)cc2CC(=O)O1 [compound 2, 10(11)-dehydrocurvularin] | 15.3 ± 9.9 µM
2 | 24.3 µM | C[C@H]1CCC/C=C/C(=O)c2c(cc(O)c(Cl)c2O)CC(=O)O1 [compound 3, 6-chloro-10(11)-dehydrocurvularin] | 
3 | 13.9 µM | C[C@H]1CCC/C=C/C(=O)c2c(O)c(Cl)c(O)c(Cl)c2CC(=O)O1 [compound 4, 4,6-dichloro-10(11)-dehydrocurvularin] | 
